# Source: the supplement of paper PMC10307832
# Assays:
# Assay in all cases: relative viability (nuclei count vs DMSO), 5 days (fraction); higher = more cells survive
# Tanzisertib + Navitoclax = compound: O[C@H]1CC[C@H](Nc2ncc3nc(Nc4c(F)cc(F)cc4F)n([C@H]4CCOC4)c3n2)CC1 [Tanzisertib] + CC1(C)CCC(c2ccc(Cl)cc2)=C(CN2CCN(c3ccc(C(=O)NS(=O)(=O)c4ccc(N[C@H](CCN5CCOCC5)CSc5ccccc5)c(S(=O)(=O)C(F)(F)F)c4)cc3)CC2)C1 [Navitoclax] (partner 0.5 µM)
# In short: (§1)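 Cells from lung cancer lines were seeded into 1536-well plates and, one day later, dosed by pin tool. Treatments were either a single drug or a fixed dose of an anchor drug with five library-drug doses (not always all listed) in √10 steps. After 5 days, nuclei were stained in a one-step fixation (final 0.05% Triton X-100, 1% formaldehyde, 1 ug/ml Hoechst) and counted on 4× images, and relative viability is the treated-to-vehicle nuclei ratio, as the median of duplicate plates.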
# Tanzisertib + Phenformin = compound: O[C@H]1CC[C@H](Nc2ncc3nc(Nc4c(F)cc(F)cc4F)n([C@H]4CCOC4)c3n2)CC1 [Tanzisertib] + N=C(N)NC(=N)NCCc1ccccc1 [Phenformin] (partner 250 µM)
# In short: as §1
# Tanzisertib + Olaparib = compound: O[C@H]1CC[C@H](Nc2ncc3nc(Nc4c(F)cc(F)cc4F)n([C@H]4CCOC4)c3n2)CC1 [Tanzisertib] + O=C(c1cc(Cc2n[nH]c(=O)c3ccccc23)ccc1F)N1CCN(C(=O)C2CC2)CC1 [Olaparib] (partner 8 µM)
# In short: as §1
# [1] = compound: C1CNCCC1C2=CC(=NN2)C3=CC=NC=C3 + CC(=O)Nc1cccc(-n2c(=O)n(C3CC3)c(=O)c3c(Nc4ccc(I)cc4F)n(C)c(=O)c(C)c32)c1 [Trametinib] (partner 0.02 µM)
# In short: as §1
Cell Line,relative viability (Tanzisertib + Navitoclax; first compound 0.08 µM),relative viability (Tanzisertib + Navitoclax; first compound 0.253 µM),relative viability (Tanzisertib + Navitoclax; first compound 0.8 µM),relative viability (Tanzisertib + Navitoclax; first compound 2.53 µM),relative viability (Tanzisertib + Navitoclax; first compound 8 µM),relative viability (Tanzisertib + Phenformin; first compound 0.08 µM),relative viability (Tanzisertib + Phenformin; first compound 0.253 µM),relative viability (Tanzisertib + Phenformin; first compound 0.8 µM),relative viability (Tanzisertib + Phenformin; first compound 2.53 µM),relative viability (Tanzisertib + Phenformin; first compound 8 µM),relative viability (Tanzisertib + Olaparib; first compound 0.08 µM),relative viability (Tanzisertib + Olaparib; first compound 0.253 µM),relative viability (Tanzisertib + Olaparib; first compound 0.8 µM),relative viability (Tanzisertib + Olaparib; first compound 2.53 µM),relative viability (Tanzisertib + Olaparib; first compound 8 µM),relative viability ([1]; first compound 0.08 µM),relative viability ([1]; first compound 2.53 µM),relative viability ([1]; first compound 8 µM),relative viability ([1]; first compound 0.8 µM)
NCI-H23,0.964,0.75,0.912,0.86,0.819,0.808,0.808,0.84,0.795,0.668,0.316,0.341,0.36,0.301,0.314,0.372,0.444,0.371,–
NCI-H322M,1.34,1.12,1.11,1.16,1.16,0.788,0.728,0.832,0.81,0.721,0.805,0.836,0.762,0.89,0.726,0.511,0.516,0.575,0.533
NCI-H441,0.456,0.601,0.629,0.773,0.584,1.12,0.723,0.725,0.853,0.817,0.642,0.611,0.545,0.496,0.535,0.425,0.555,0.461,0.469
NCI-H460,1.32,1.21,0.986,1.2,1.24,0.572,0.522,0.489,0.54,0.523,0.487,0.445,0.417,0.442,0.503,0.0741,0.158,0.188,0.122
NCI-H520,1.12,1.1,1.1,1.01,1.11,0.734,0.662,0.599,0.609,0.663,0.395,0.331,0.39,0.328,0.433,0.609,0.666,0.725,0.776
NCI-H596,0.978,0.91,0.972,0.888,0.96,0.968,0.626,0.882,0.675,0.602,0.758,0.657,0.622,0.625,0.697,0.777,0.819,0.834,0.808
NCI-H647,1.11,1.18,1.22,1.3,0.943,0.531,0.703,0.481,0.487,0.555,0.875,0.487,0.505,0.657,0.65,0.491,0.535,0.525,0.379
NCI-H727,0.377,0.354,0.481,0.477,0.502,0.581,0.504,0.458,0.497,0.465,0.69,0.678,0.553,0.734,0.686,0.386,0.421,0.364,0.366
NCI-H838,1.18,1.15,1.26,1.18,1.12,0.666,0.608,0.628,0.587,0.541,0.823,0.756,0.741,0.725,0.788,0.518,0.589,0.512,0.494
NCI-H1355,0.954,0.923,0.961,0.985,0.944,0.517,0.44,0.503,0.472,0.431,0.772,0.735,0.756,0.757,0.796,0.419,0.466,0.406,0.442
NCI-H1395,1.05,1.27,1.43,1.1,1.01,0.481,0.454,0.427,0.456,0.396,0.462,0.445,0.455,0.42,0.45,0.905,0.966,1.16,0.992
NCI-H1437,1.14,1.1,1.08,1.13,1.08,0.287,0.314,0.303,0.276,0.283,0.634,0.647,0.669,0.652,0.619,0.54,0.679,0.639,0.536
NCI-H1650,1.19,1.22,1.17,1.16,1.12,0.317,0.425,0.407,0.307,0.314,0.807,0.778,0.882,0.671,0.662,0.506,0.569,0.578,0.558
NCI-H1651,1.07,0.915,1.18,1.11,0.854,0.327,0.371,0.305,0.322,0.332,0.206,0.182,0.196,0.2,0.175,0.816,0.897,0.815,0.855
NCI-H1666,0.972,1.03,0.916,1.06,0.878,0.595,0.602,0.56,0.607,0.59,0.754,0.801,0.747,0.729,0.768,0.749,0.979,0.915,0.87
NCI-H1734,1.03,0.777,0.852,0.867,0.757,0.469,0.406,0.356,0.387,0.334,0.66,0.626,0.604,0.671,0.687,0.531,0.668,0.667,0.708
NCI-H1755,1.1,1.02,0.98,0.982,0.931,0.692,0.612,0.595,0.649,0.632,0.906,0.868,0.889,0.855,0.865,0.744,0.755,0.739,0.833

Cell Line,relative viability (Tanzisertib + Navitoclax; first compound 0.08 µM),relative viability (Tanzisertib + Navitoclax; first compound 0.253 µM),relative viability (Tanzisertib + Navitoclax; first compound 0.8 µM),relative viability (Tanzisertib + Navitoclax; first compound 2.53 µM),relative viability (Tanzisertib + Navitoclax; first compound 8 µM),relative viability (Tanzisertib + Phenformin; first compound 0.08 µM),relative viability (Tanzisertib + Phenformin; first compound 0.253 µM),relative viability (Tanzisertib + Phenformin; first compound 0.8 µM),relative viability (Tanzisertib + Phenformin; first compound 2.53 µM),relative viability (Tanzisertib + Phenformin; first compound 8 µM),relative viability (Tanzisertib + Olaparib; first compound 0.08 µM),relative viability (Tanzisertib + Olaparib; first compound 0.253 µM),relative viability (Tanzisertib + Olaparib; first compound 0.8 µM),relative viability (Tanzisertib + Olaparib; first compound 2.53 µM),relative viability (Tanzisertib + Olaparib; first compound 8 µM),relative viability ([1]; first compound 0.08 µM),relative viability ([1]; first compound 2.53 µM),relative viability ([1]; first compound 8 µM),relative viability ([1]; first compound 0.8 µM)
NCI-H1792,0.75,0.777,0.674,0.553,0.598,0.233,0.467,0.544,0.38,0.475,0.813,0.572,0.498,0.345,0.436,0.428,0.539,0.438,0.487
NCI-H1793,0.432,0.424,0.445,0.39,0.382,0.448,0.339,0.41,0.379,0.367,0.876,0.807,0.873,0.77,0.592,0.459,0.414,0.406,–
NCI-H1915,0.793,0.786,0.78,0.805,0.83,0.4,0.355,0.364,0.365,0.291,0.29,0.271,0.244,0.245,0.25,0.289,0.3,0.299,0.298
NCI-H1944,1.11,1.04,1.04,1.05,1.03,0.23,0.197,0.21,0.198,0.203,0.462,0.412,0.377,0.44,0.385,0.333,0.389,0.411,0.376
NCI-H1975,1.28,1.09,1.21,1.29,1.03,0.419,0.404,0.409,0.424,0.441,0.898,0.836,0.807,0.818,0.752,0.342,0.356,0.394,0.249
NCI-H1993,1.08,0.909,0.947,0.924,0.803,0.484,0.508,0.49,0.491,0.537,0.985,0.928,1.17,1.04,0.766,0.512,0.509,0.536,0.597
NCI-H2009,1.22,1.27,1.19,1.27,1.22,0.52,0.483,0.515,0.593,0.553,0.634,0.734,0.743,0.73,0.752,0.248,0.376,0.298,0.257
NCI-H2023,1.07,1.05,1.08,0.999,0.962,0.427,0.37,0.407,0.411,0.404,0.523,0.47,0.497,0.44,0.452,0.418,0.645,0.494,0.627
NCI-H2085,1.11,1.05,1.2,1.09,1.14,0.739,0.724,0.81,0.715,0.461,–,0.763,0.745,0.803,0.76,0.623,0.52,0.71,–
NCI-H2087,1.04,0.961,0.957,1.04,0.95,0.464,0.502,0.463,0.447,0.322,0.552,0.576,0.501,0.52,0.588,0.216,0.181,0.291,0.226
NCI-H2126,0.914,0.854,0.877,0.815,0.893,0.566,0.548,0.545,0.534,0.516,0.913,0.919,0.987,0.873,0.938,0.582,0.543,0.564,0.564
NCI-H2170,0.702,0.496,0.656,0.57,0.582,0.406,0.451,0.457,0.411,0.392,0.669,0.569,0.601,0.604,0.53,0.763,0.915,0.907,0.925
NCI-H2228,0.985,1.06,1.07,1.04,0.742,0.399,0.279,0.397,0.275,0.227,0.579,0.506,0.556,0.788,0.496,0.56,0.696,0.7,0.37
NCI-H2347,0.793,0.809,0.888,0.87,0.837,0.445,–,0.434,0.306,0.376,0.628,0.626,0.593,0.677,0.766,0.264,0.326,0.262,0.266
NCI-H2405,0.968,0.837,1.02,1.03,0.688,0.454,0.393,0.426,0.385,0.345,0.924,0.902,0.869,1.03,0.869,0.588,0.638,0.615,0.631
NCI-H3122,1.03,1.02,1.04,1.07,0.972,0.398,0.423,0.378,0.426,0.314,0.708,0.587,0.634,0.583,0.62,0.207,0.209,0.238,0.222
